Where “and” joins values, the source holds several entries; their conditions need not be identical. Identical values can stand only once. Like-named read-outs stand apart in the source and are kept apart here.

Test [1] deals with GFP-tagged CBP bromodomain (Homo sapiens, UniProt Q92793). As to the kind of experiment: Microscale thermophoresis (MST). It is filed as binding. Particulars: for Response (Dose Response Curve): MST raw response; for Bound (Fit Results): fitted MST response of bound state; for Bound (Fit Results) / Unbound (Fit Results): target clGFP-CBPBRD 5e-8; for Unbound (Fit Results): fitted MST response of unbound state. The procedure: MST experiments were performed in a Monolith NT.115 Pico instrument (NanoTemper Technologies) following published procedures. […] MST traces were recorded using standard parameters: 5 s MST power off, 30 s MST power on and 5 s MST power off. Measurements were taken at -1-0 s (cold region) and 10 s (hot region) and data were analyzed using the NTAnalysis software.

In test [2] the test system is HDMB03 (HDMBO3) group 3 medulloblastoma cells. As to the kind of experiment: CellTiter-Glo dose-response growth assay. It is filed as cell-based. Particulars: Homo sapiens, HD-MB03; HDMBO3 G3MB cell growth; read-out: IC50 (nM) HDMBO3. The procedure: CellTiter-Glo assay was performed as per the manufacturer’s instructions, at the noted timepoint after compound treatment or plating. For Kelly, TE617T, RhJT, NCIH2122, NCIH650 and 143B, 500 cells were plated in normal growth media per well in a 384-well plate (Corning). HDMB03 and MB002 cells were plated in growth media at 500 cells/well in a 384-well plate. […] Cells were incubated for the noted timepoints prior to performing CellTiter-Glo assay as per the manufacturer’s instructions, and reading plates on an Envision 2104 microplate reader.

The target in the next test is T1, BRD4-BD1 (BRD4-1) (Homo sapiens, UniProt O60885).
T1 construct: BRD4-BD1 (residues 44-168); 6xHis (cleaved yes); host or cells: E. coli BL21 (DE3) RIL
As to the kind of experiment: Differential scanning fluorimetry (DSF) thermal shift. It is filed as binding. The procedure: (§1) At OD600 of 0.6, the culture was cooled down to 18 °C and induced with 0.1 mM IPTG. After 18 h growth, the culture was harvested by centrifugation at 6000 × g for 25 min and stored at -80 °C. Harvested cell pellets were re-suspended in 50 mM Na/K phosphate buffer (pH 7.4) containing 100 mM NaCl, 40 mM imidazole, 0.01% w/v lysozyme and 0.01% v/v Triton X-100 at 4 °C for 1 h, subjected to sonication and the lysate was clarified by centrifugation (30,000 × g for 45 min at 4 °C). Proteins were purified by FPLC at 4 °C using columns and chromatography materials from GE Healthcare. […] Proteins were purified to homogeneity by size exclusion chromatography using Superdex 75 equilibrated with elution buffer (50 mM HEPES pH 7.5, 100 mM NaCl, 2 mM DTT). All BRDs eluted as monomeric protein and were of crystallization grade quality (>95% purity as judged by SDS-PAGE). Pool fractions were combined, concentrated to 10–12 mg/ml, and aliquots were flash-frozen in liquid N2 and stored at −80 °C.
(§2) DSF experiments were performed with an Applied Biosystem StepOnePlus real-time PCR system (Thermo Fisher Scientific) using 96-well format plates, assayed in quadruplicate. For thermal shift determination, 5 μM protein was mixed with 100 μM compound in 50 mM HEPES, pH 7.5, 150 mM NaCl, 2 mM DTT, 2% DMSO, 5X SYPRO Orange (Thermo Fisher Scientific) in 20 μL reaction volumes. Reaction mixtures were heated from 25 to 95 °C at 1 °C/min with fluorescence readings every 0.5 °C at 610 nm. The observed thermal shift (ΔTm) was recorded as the difference between the Tm of sample and DMSO reference wells.

In the next test the target is T2, EP300 bromodomain (Homo sapiens, UniProt Q09472).
T2 construct: 6xHis (cleaved yes); host or cells: E. coli BL21 (DE3) RIL
T2 sequence (Q09472 1048-1161): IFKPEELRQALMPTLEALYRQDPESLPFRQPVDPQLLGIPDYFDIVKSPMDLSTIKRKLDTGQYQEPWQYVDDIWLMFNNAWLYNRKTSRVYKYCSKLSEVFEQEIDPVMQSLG
Described as above. It is filed as binding. The procedure:
as §1, §2

For test [3], the target named is T3, CBP bromodomain (Homo sapiens, UniProt Q92793).
T3 construct: CBP (residues 1081-1197); 6xHis (cleaved yes); host or cells: E. coli BL21 (DE3) RIL
Described as above. Type of test: binding. The procedure:
as §1, with “After” for “At OD600 of 0.6, the culture was cooled down to 18 °C and induced with 0.1 mM IPTG. After”, “All BRDs eluted as monomeric protein and were of crystallization grade quality (>95% purity as judged by SDS-PAGE).” left out
(§3) DSF experiments were performed with an Applied Biosystem StepOnePlus real-time PCR system (Thermo Fisher Scientific) using 96-well format plates, assayed in quadruplicate. For thermal shift determination, 5 μM protein was mixed with 100 μM compound in 50 mM HEPES, pH 7.5, 150 mM NaCl, 2 mM DTT, 2% DMSO, 5X SYPRO Orange (Thermo Fisher Scientific) in 20 μL reaction volumes.

The subject of test [4] is CBP bromodomain. The description is as above. Type of test: binding. Particulars: ΔTm (CBP)/ΔTm(BRD4). The procedure:
as §1, with “After” for “At OD600 of 0.6, the culture was cooled down to 18 °C and induced with 0.1 mM IPTG. After”, “All BRDs eluted as monomeric protein and were of crystallization grade quality (>95% purity as judged by SDS-PAGE).” left out
as §3

The mark [5] stands for this setting: Dose 1.52588e-10, single replicate run.
[6] abbreviates: Dose 3.05176e-10, single replicate run.
Where [7] appears, read: Dose 6.10352e-10, single replicate run.
[8] abbreviates: Dose 1.2207e-9, single replicate run.
The mark [9] stands for this setting: Dose 2.44141e-9, single replicate run.
Setting [10] is: Dose 4.88281e-9, single replicate run.
Setting [11] is: Dose 9.76563e-9, single replicate run.
The mark [12] stands for this setting: Dose 1.95313e-8, single replicate run.
[13] abbreviates: Dose 3.90625e-8, single replicate run.
The mark [14] stands for this setting: Dose 7.8125e-8, single replicate run.
Setting [15] is: Dose 1.5625e-7, single replicate run.
[16] abbreviates: Dose 3.125e-7, single replicate run.
Setting [17] is: Dose 6.25e-7, single replicate run.
Where [18] appears, read: Dose 1.25e-6, single replicate run.
Where [19] appears, read: Dose 2.5e-6, single replicate run.
Where [20] appears, read: Dose 5e-6, single replicate run.
The mark [21] stands for this setting: MST, single replicate run, target clGFP-CBPBRD, TargetConcentration 5e-8, MST-Power Medium, unit inferred, read-out: Kd (Fit Results, Fit Model: Kd).
[22] abbreviates: DSF, 5 μM protein, 100 μM compound, three independent experiments, average ± SD.

Chain of GFP-tagged CBP bromodomain (Q92793 1085-1192 limits assumed): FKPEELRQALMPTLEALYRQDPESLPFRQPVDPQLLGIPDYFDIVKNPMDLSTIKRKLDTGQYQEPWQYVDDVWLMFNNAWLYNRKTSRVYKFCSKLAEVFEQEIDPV
T3 sequence (Q92793 1081-1197): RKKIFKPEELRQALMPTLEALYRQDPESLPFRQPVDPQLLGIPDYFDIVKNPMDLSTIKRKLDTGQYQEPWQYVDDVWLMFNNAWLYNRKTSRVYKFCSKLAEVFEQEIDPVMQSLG

Turning to `COC1CCC(n2c(C3CCCC(=O)N3c3ccccc3)nc3cc(-c4c(C)noc4C)ccc32)CC1` (stereo not shown) [iCBP5-5], the “Response (Dose Response Curve)” value in test [1] (setting [5]) is 915.174; in test [1] (setting [6]) it was 914.49; in test [1] (setting [7]), 915.362; in test [1] (setting [8]) it was 915.368; in test [1] (setting [9]) it was 914.907; in test [1] (setting [10]), 914.429. The “Response (Dose Response Curve)” value in test [1] (setting [11]) was 913.858; in test [1] (setting [12]), 914.04; in test [1] (setting [13]) it was 913.557; in test [1] (setting [14]), 913.257; in test [1] (setting [15]), 911.399; in test [1] (setting [16]) it was 910.65. Moreover, the “Response (Dose Response Curve)” value in test [1] (setting [17]) is recorded as 909.717; in test [1] (setting [18]), 910.942; in test [1] (setting [19]), 910.368; in test [1] (setting [20]) it was 911.15. In addition, in test [1] (setting [21]), the Kd was 44.3 nM. For the same compound, in test [1] (single replicate run), the “Bound (Fit Results)” value came to 910.375. Moreover, the “Unbound (Fit Results)” value in test [1] (single replicate run) was determined as 914.969.

Regarding `COC1CCC(n2c(C3CCCC(=O)N3c3cccc(C(C)(C)C)c3)nc3cc(-c4c(C)noc4C)ccc32)CC1` (stereo not shown) [Compound 6], the IC50 in test [2] worked out at 558 ± 335 nM. In addition, on BRD4-BD1 (BRD4-1) (setting [22]), the “∆Tm (°C) BRD4-1” value is 3.2 ± 0.13 °C. Besides, the “∆Tm (°C) EP300” value at EP300 bromodomain (setting [22]) came out at 14.3 ± 0.19 °C. For the same compound, the “∆Tm (°C) CBP” value at CBP bromodomain [3] (setting [22]) came out at 15.3 ± 0.2 °C. Besides, the “Ratio CBP/BRD4 of ∆Tm” value in the test on CBP bromodomain [4] turned out to be 4.8. Further, the Kd in test [1] (three independent MST experiments, average ± SD, read-out: Kd (nM) CBP) amounted to 30 ± 21.6 nM.

Regarding `COC1CCC(n2c(C3CCCC(=O)N3c3cccc(C(C)(C)C)c3)nc3cc(-c4c(C)noc4C)ccc32)CC1` (stereo not shown) [iCBP-6], at BRD4-BD1 (BRD4-1) (Figure 3A, DSF, BRD4-BD1), the “ΔTm (°C) BRD4-BD1” value was determined as 3.2 °C. Further, the “ΔTm (°C) EP300” value at EP300 bromodomain (Figure 3B, DSF, EP300) stood at 14.3 °C. The “ΔTm (°C) CBP” value was found to be 15.3 °C on CBP bromodomain [3] (Figure 3A, DSF, CBP bromodomain) and 15.3 °C at CBP bromodomain [3] (Figure 3B, DSF, CBP). Besides, at CBP bromodomain [3] (Figure 3C, DSF (values equal CBP column)), the “DSF ΔTm (°C)” value worked out at 15.3 °C. Moreover, the Kd in test [1] (Figure 3C, MST, read-out: MST Kd) is 30 nM; in test [1] (setting [21]) it was 20 nM and 15.2 nM and 54.7 nM. In addition, the “Response (Dose Response Curve)” value is 893.145 and 893.496 and 892.759 in test [1] (setting [5]); 891.612 and 893.465 and 892.592 in test [1] (setting [6]); 892.684 and 894.151 and 892.213 in test [1] (setting [7]); 892.641 and 893.04 and 893.233 in test [1] (setting [8]); 892.502 and 892.231 and 892.986 in test [1] (setting [9]); 891.878 and 891.94 and 891.268 in test [1] (setting [10]). Besides, the “Response (Dose Response Curve)” value in test [1] (setting [11]) is 891.027 and 892.27 and 891.532; in test [1] (setting [12]), 892.42 and 891.618 and 892.241; in test [1] (setting [13]), 890.537 and 890.96 and 891.609; in test [1] (setting [14]), 889.07 and 889.984 and 889.085; in test [1] (setting [15]), 888.52 and 887.496 and 888.851; in test [1] (setting [16]), 887.2 and 888.101 and 888.455. Further, the “Response (Dose Response Curve)” value in test [1] (setting [17]) is 887.415 and 887.704 and 886.214; in test [1] (setting [18]), 888.032 and 886.878 and 886.638; in test [1] (setting [19]), 887.475 and 888.923 and 888.41; in test [1] (setting [20]), 888.712 and 888.775 and 886.626. The “Bound (Fit Results)” value in test [1] (single replicate run) was 887.696 and 887.896 and 886.89. Besides, the “Unbound (Fit Results)” value in test [1] (single replicate run) is 892.536 and 893.196 and 892.626.

Turning to `COc1ccc(CCc2nc3cc(-c4c(C)noc4C)ccc3n2C[C@H](C)N2CCOCC2)cc1Cl` [SGC-CBP30], the “ΔTm (°C)” value was 0 °C at BRD4-BD1 (BRD4-1) (DSF thermal shift vs DMSO, BRD4-BD1, Fig 2B) and 7.9 °C on EP300 bromodomain (DSF thermal shift vs DMSO, EP300 bromodomain, Fig 2B).

Values taken from article PMC11045757, “Group 3 medulloblastoma transcriptional networks collapse under domain specific EP300/CBP inhibition” (Nature Communications, 2024).
